For test [1], the system named is MCF7 cells. The test can be described thus: Cell viability (MTT) assay. Conditions: Homo sapiens. In kind it is cell-based. As for the experimental part: (§1) Cell Culture and Reagents. The cell lines used in this study were procured from American Type Culture Collection (ATCC), Manassas, USA. MCF7, T47D and fR2 cells were cultured in RPMI-1640 medium, whereas the MDA-MB-231 cells were grown in Leibovitz's (L-15) medium supplemented with 10% fetal bovine serum (Gibco) and 1% penicillin/streptomycin (Sigma) in a humidified CO2 incubator (New Brunswick Galaxy 170 R) with 5% CO2. Reagents such as phenylmethylsulfonyl fluoride (PMSF), dithiothreitol (DTT), DMSO, crystal violet, and Bradford's reagent were purchased from Sigma-Aldrich. Protease inhibitor cocktail was procured from Roche. The antibodies for human GRP78, Par-4, MMP-2, MMP-9, NF-kB, E-cadherin and TIMP-1 were procured from Santa-Cruz Biotechnology. The β-actin antibody and the secondary antibodies such as anti-rabbit IgG and anti-mouse IgG were procured from Sigma-Aldrich.
(§2) Cell Viability Assay. The cell viability was determined by standard MTT assay method. Briefly, MDA-MB-231, MCF7, T47D and fR2 cells were seeded in 96 well tissue culture plates (Nunc) at a density of 3×10^3 cells per well and treated with varying concentrations of the test compounds in triplicates. DMSO was taken as a vehicle and the final concentration of the DMSO was maintained at 0.2% in the culture medium. Doxorubicin was employed as a positive control. After 44 h of incubation, MTT dye solution was added into the medium and cells were incubated for another 4 h at 37° C. in 5% CO2. The amount of coloured formazan derivatives formed was measured by taking optical density (OD) using a microplate reader (TECAN, Infinite M200 Pro) at 570 nm and the percentage cell viability was calculated. The IC50 values were calculated using GraphPad Prism software (Version 5.0). Table 2. Cytotoxicity (IC50) of all synthesized compounds of invention against panel of human breast cancer cell lines (MDA-MB-231, MCF7, T47D) and normal breast epithelial (fR2) cells.

For the next test, the system named is T47D cells. The test can be described thus: Cell viability (MTT) assay. In kind it is cell-based. The conditions noted are these: Homo sapiens, 44 h + 4 h, mean ± SD of three experiments. As for the experimental part:
as §1, §2

The subject of test [2] is MDA-MB-231 cells. Put plainly: Cell viability (MTT) assay. Conditions: Homo sapiens. In kind it is cell-based. As for the experimental part: as §1, §2
For the next test, the system named is MMP-9. Put plainly: Immunoblotting, expression of MMP-9. In kind it is cell-based, human. Conditions: MDA-MB-231 cells; dose dependent. As for the experimental part:
(§3) Immunoblotting. MDA-MB-231 and MCF7 cells (0.5×10^6) were plated in six well plates for overnight in a humidified CO2 incubator and then exposed to varying concentrations of 5 (50, 100 and 200 nM) for 24 h along with vehicle (dose dependent study) and 200 nM of 5 for various time points like; 0, 6, 12, 24 and 48 h (time dependent study). Cells were then harvested, washed with chilled PBS and lysed with lysis buffer (HEPES 1 mM, KCl 60 mM, NP-40 0.3%, EDTA 1 mM, DTT 1 mM, sodium orthovanadate 1 mM, PMSF 0.1 mM and cocktail protease inhibitor). The cell extractions were centrifuged at 12,000 rpm for 10 min at 4° C. Protein concentration was measured by the standard Bradford method. An equal amount (20 μg) of protein from each sample was subjected to SDS-PAGE, and proteins were transferred to PVDF membranes (PALL), blocked with 5% (w/v) non-fat milk in PBS containing 0.1% Tween-20, probed with relevant antibodies (1:1000 dilution) for 3 h at room temperature or overnight at 4° C., and subsequently washed and probed with species-specific secondary antibodies coupled to horseradish peroxidase. Immunoreactive proteins were detected by Enhanced Chemiluminescence Plus (Thermo) (Rah et al., 2012, PloS one, 7(9), p.e44039.).
(Immunoblotting shows a protein as a band on a membrane.)

A further test relates to Par-4. The test can be described thus: Immunoblotting, expression of Par-4. In kind it is cell-based, human. As for the experimental part: as §3, with “An equal amount (20 μg) of protein from each sample was subjected to SDS-PAGE, and proteins were transferred to PVDF membranes (PALL), blocked with 5% (w/v) non-fat milk in PBS containing 0.1% Tween-20, probed with relevant antibodies (1:1000 dilution) for 3 h at room temperature or overnight at 4° C., and subsequently washed and probed with species-specific secondary antibodies coupled to horseradish peroxidase.” left out
Drug Potentiation Assay. […] The ability of 5 to enhance cell killing was expressed as potentiation index (PI), which was the ratio of the % inhibition of 5 alone at the given dose and the % inhibition in combination with doxorubicin. […]

Test [3] deals with MCF7 cells. Put plainly: Matrigel invasion assay. In kind it is cell-based. Conditions: Homo sapiens, 200 nM, 24 h, vs vehicle. As for the experimental part: (§4) Matrigel Invasion Assay. The effect of compound 5 on invasion capability of breast cancer cells was evaluated using BD Biocoat Tumor Invasion Assay System (BD Bioscience, Bedford, Mass.) according to the manufacturer's instruction. Briefly, MDA-MB-231 and MCF7 cells (1×10^6) cells were cultured in the presence of 200 nM of compound 5, along with doxorubicin and vehicle for 24 h in serum free media in the upper chambers/inserts, and the bottom wells were filled with chemo-attractant (complete media with 10% FBS). Cells were allowed to migrate at 37° C. and 5% CO2. After 24 h, the matrigel-coated polycarbonate filters were removed, the non-migrating cells were separated from the upper chamber with a cotton swab and the inserts were fixed with methanol and stained with 0.25% crystal violet solution. For each replicate (n=3), migration of the cells was quantified by counting the stained cells (cells per five random fields) under an inverted microscope (Amin et al., 2015, Mol. Carcinog).

Test [4] concerns MDA-MB-231 cells. Put plainly: Matrigel invasion assay. In kind it is cell-based. Conditions: Homo sapiens, 200 nM, 24 h, vs vehicle. The protocol: as §4

Results on one compound are retold here after patent US11180486B2, “Indolylkojyl methane analogues, process of preparation thereof and use as inhibitor of cancer cells invasion and metastasis” (Council of Scientific & Industrial Research, priority 2017, dated 2021).

Structures are written as SMILES. Where two headings read alike, the source gives them in different places.

For orientation: IC50 means the midpoint of a concentration-inhibition curve. One may read the inhibition as the relative decrease from the control value, in per cent. Take `CCCCCCCC(c1oc(CO)cc(=O)c1O)c1c[nH]c2ccccc12` (centres unmarked) [Compound 5, 2-{1-(1H-indol-3-yl)octyl}-3-hydroxy-6-(hydroxymethyl)-4H-pyran-4-one]: the IC50 was found to be 150 ± 95 nM in the test with MCF7 cells [1] (MCF7, 44 h + 4 h, mean ± SD of three experiments, read-out: IC50 values MCF7); 150 nM in the test on MCF7 cells [1] (MCF7, read-out: IC50 in MCF7); 3450 nM in the test on T47D cells; 3450 nM in the test with T47D cells (48 h); 209 ± 265 nM in the test on MDA-MB-231 cells [2] (MDA-MB-231, 44 h + 4 h, mean ± SD of three experiments, read-out: IC50 values MDA-MB-231); 209 nM in the test with MDA-MB-231 cells [2] (MDA-MB-231, read-out: IC50 in MDA-MB-231). Moreover, the “expression of MMP-9” value in the test with MMP-9 is given as “downregulated”. For the same compound, the “increase in the expression of Par-4” value with Par-4 (MDA-MB-231, 5 and doxorubicin in combination, 24 h, vs each alone, densitometry) is 5.8 fold. The “expression of Par-4” value in the test with Par-4 (MDA-MB-231 cells, dose dependent) is reported as “induced significantly”. Further, the inhibition at 0.2 µM in the test with MCF7 cells [3] is 79%; in the test with MDA-MB-231 cells [4], 67%.
